How the values were obtained:
wheat (winter wheat) = experiment: Test C pre-/postemergence herbicide test; type: in vivo, Triticum aestivum
Method in brief: (§1)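 Greenhouse pots; formulation = non-phytotoxic solvent mix + surfactant. PRE onto seeds in loam:sand; POST at 1–4 leaves (2–18 cm) in peat moss/vermiculite medium. Read-out: visual % control vs untreated, day 13–15.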

galium = experiment: Test C pre-/postemergence herbicide test; type: in vivo, Galium aparine; settings: Preemergence
Method in brief: as §1

foxtail, giant = experiment: Test C pre-/postemergence herbicide test; type: in vivo, Setaria faberii
Method in brief: as §1

corn [1] = experiment: Test A pre-/postemergence herbicide test; type: in vivo, Zea mays; settings: Postemergence
Method in brief: (§2)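 Greenhouse pot test with pre- and postemergence application of surfactant-containing solvent formulations. Postemergence plants were 2–10 cm, one- to two-leaf stage. Response scored visually after ~10 days, 0 (no effect) to 100 (complete control).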

johnsongrass = experiment: Test C pre-/postemergence herbicide test; type: in vivo, Sorghum halepense
Method in brief: as §1

morningglory = experiment: Test C pre-/postemergence herbicide test; type: in vivo, Ipomoea coccinea
Method in brief: as §1

soybean = experiment: Test C pre-/postemergence herbicide test; type: in vivo, Glycine max
Method in brief: as §1

ryegrass, Italian = experiment: Test C pre-/postemergence herbicide test; type: in vivo, Lolium multiflorum
Method in brief: as §1

wheat = experiment: Test A pre-/postemergence herbicide test; type: in vivo, Triticum aestivum; settings: Postemergence
Method in brief: as §2

crabgrass, large = experiment: Test C pre-/postemergence herbicide test; type: in vivo, Digitaria sanguinalis
Method in brief: as §1

barnyardgrass = experiment: Test A pre-/postemergence herbicide test; type: in vivo, Echinochloa crus-galli
Method in brief: as §2

pigweed = experiment: Test A pre-/postemergence herbicide test; type: in vivo, Amaranthus retroflexus
Method in brief: as §2

corn [2] = experiment: Test C pre-/postemergence herbicide test; type: in vivo, Zea mays
Method in brief: as §1

[3] = Postemergence, 31 g ai/ha, scale 0 to 100 (0 no effect, 100 complete control)
[4] = Postemergence, 62 g ai/ha, scale 0 (no effect) to 100 (complete control)
[5] = Postemergence, 125 g ai/ha, scale 0 to 100 (0 no effect, 100 complete control)
[6] = Postemergence, 250 g ai/ha, scale 0 to 100 (0 no effect, 100 complete control)
[7] = Preemergence, 62 g ai/ha, scale 0 to 100 (0 no effect, 100 complete control)
[8] = Preemergence, 125 g ai/ha, scale 0 to 100
[9] = Preemergence, 31 g ai/ha, scale 0 to 100, 0 is no effect and 100 is complete control
[10] = 125 g ai/ha, visual rating on 0 to 100 scale (0 no effect, 100 complete control), approx. 10 days
[11] = 500 g ai/ha, 0 to 100 scale (0 no effect, 100 complete control)
[12] = Postemergence, 125 g ai/ha, visual rating on 0 to 100 scale (0 no effect, 100 complete control), approx. 10 days
[13] = Postemergence, 500 g ai/ha, 0 to 100 scale (0 no effect, 100 complete control)
[14] = Preemergence, 125 g ai/ha, 0 to 100 scale where 0 is no effect and 100 is complete control
[15] = Preemergence, 500 g ai/ha, visual rating on 0 to 100 scale (0 no effect, 100 complete control)

O=C1NCC(c2cccc(OC(F)F)c2)C1C(=O)Nc1cccc(F)c1F (centres unmarked) [Compound 324]
Plant response rating, Wheat (wheat (winter wheat); [3]): 0
Plant response rating, Wheat (wheat (winter wheat); [4]): 0
Plant response rating, Wheat (wheat (winter wheat); [5]): 0
Plant response rating, Wheat (wheat (winter wheat); [6]): 0
Wheat plant response rating (wheat (winter wheat); [7]): 25
Plant response rating, Wheat (wheat (winter wheat); [8]): 65
Galium plant response rating (galium; 31 g ai/ha, scale 0 to 100, 0 is no effect and 100 is complete control): 0
Galium plant response rating (galium; 62 g ai/ha, scale 0 to 100 (0 no effect, 100 complete control)): 60
Plant response rating, Galium (galium; 125 g ai/ha, scale 0 to 100): 85
Plant response rating (scale of 0 to 100), Galium (galium; 250 g ai/ha): 85
Plant response rating, Foxtail, Giant (foxtail, giant; [3]): 0
Plant response rating, Foxtail, Giant (foxtail, giant; [4]): 10
Plant response rating, Foxtail, Giant (foxtail, giant; [5]): 75
Plant response rating, Foxtail, Giant (foxtail, giant; [6]): 60
Foxtail, Giant plant response rating (foxtail, giant; [9]): 90
Foxtail, Giant plant response rating (foxtail, giant; [7]): 90
Plant response rating, Foxtail, Giant (foxtail, giant; [8]): 95
Plant response rating (scale of 0 to 100), Foxtail, Giant (foxtail, giant; Preemergence, 250 g ai/ha): 95
Plant response rating, Corn (corn [1]; [10]): 50
Plant response rating, Corn (corn [1]; [11]): 90
Plant response rating, Johnsongrass (johnsongrass; [3]): 0
Plant response rating, Johnsongrass (johnsongrass; [4]): 0
Plant response rating, Johnsongrass (johnsongrass; [5]): 0
Plant response rating, Johnsongrass (johnsongrass; [6]): 10
Johnsongrass plant response rating (johnsongrass; [9]): 40
Johnsongrass plant response rating (johnsongrass; [7]): 65
Plant response rating, Johnsongrass (johnsongrass; [8]): 80
Plant response rating (scale of 0 to 100), Johnsongrass (johnsongrass; Preemergence, 250 g ai/ha): 85
Plant response rating, Morningglory (morningglory; [3]): 10
Plant response rating, Morningglory (morningglory; [4]): 5
Plant response rating, Morningglory (morningglory; [5]): 10
Plant response rating, Morningglory (morningglory; [6]): 15
Morningglory plant response rating (morningglory; [9]): 0
Morningglory plant response rating (morningglory; [7]): 0
Plant response rating, Morningglory (morningglory; [8]): 35
Plant response rating (scale of 0 to 100), Morningglory (morningglory; Preemergence, 250 g ai/ha): 55
Plant response rating, Soybean (soybean; [3]): 0
Plant response rating, Soybean (soybean; [4]): 5
Plant response rating, Soybean (soybean; [5]): 0
Plant response rating, Soybean (soybean; [6]): 0
Soybean plant response rating (soybean; [7]): 0
Plant response rating, Soybean (soybean; [8]): 0
Plant response rating, Ryegrass, Italian (ryegrass, Italian; [3]): 0
Plant response rating, Ryegrass, Italian (ryegrass, Italian; [4]): 0
Plant response rating, Ryegrass, Italian (ryegrass, Italian; [5]): 0
Plant response rating, Ryegrass, Italian (ryegrass, Italian; [6]): 0
Ryegrass, Italian plant response rating (ryegrass, Italian; [7]): 10
Plant response rating, Ryegrass, Italian (ryegrass, Italian; [8]): 35
Plant response rating, Wheat (wheat; [10]): 30
Plant response rating, Wheat (wheat; [11]): 80
Plant response rating, Crabgrass, Large (crabgrass, large; [3]): 25
Plant response rating, Crabgrass, Large (crabgrass, large; [4]): 60
Plant response rating, Crabgrass, Large (crabgrass, large; [5]): 70
Plant response rating, Crabgrass, Large (crabgrass, large; [6]): 75
Crabgrass, Large plant response rating (crabgrass, large; [9]): 95
Crabgrass, Large plant response rating (crabgrass, large; [7]): 95
Plant response rating, Crabgrass, Large (crabgrass, large; [8]): 98
Plant response rating (scale of 0 to 100), Crabgrass, Large (crabgrass, large; Preemergence, 250 g ai/ha): 98
Plant response rating, Barnyardgrass (barnyardgrass; [12]): 90
Plant response rating, Barnyardgrass (barnyardgrass; [13]): 90
Plant response rating, Barnyardgrass (barnyardgrass; [14]): 90
Barnyardgrass plant response rating (barnyardgrass; [15]): 90
Plant response rating, Pigweed (pigweed; [12]): 40
Plant response rating, Pigweed (pigweed; [13]): 70
Plant response rating, Pigweed (pigweed; [14]): 30
Pigweed plant response rating (pigweed; [15]): 60
Plant response rating, Corn (corn [2]; [3]): 0
Plant response rating, Corn (corn [2]; [4]): 0
Plant response rating, Corn (corn [2]; [5]): 55
Plant response rating, Corn (corn [2]; [6]): 0
Corn plant response rating (corn [2]; [9]): 25
Corn plant response rating (corn [2]; [7]): 70
Plant response rating, Corn (corn [2]; [8]): 75
Plant response rating (scale of 0 to 100), Corn (corn [2]; Preemergence, 250 g ai/ha): 85

Source: patent US10294202B2, “Pyrrolidinones as herbicides” (FMC Corporation, priority 2013, dated 2019)
